Read-outs that look alike come from different tables or passages of the source.
What was measured:
[1] = Belinostat plasma pharmacokinetics in patients (HPLC-MS/MS, non-compartmental); format: in vivo, human; conditions: for Cl / Vss / AUC / AUC(0-inf) / Cmax / half-life: mean±s.d.; for AUC / AUC(0-inf) / Cmax / half-life: human, plasma, iv
Procedure: Belinostat and paclitaxel levels were determined in lithium-heparinised plasma using validated solid-phase extraction high performance liquid chromatograpgy (HPLC)-tandem mass spectrometric detection (MS/MS) methods (Covance, Indianapolis, IN, USA). […] Belinostat plasma concentrations were determined at Covance using a validated method involving solid-phase extraction, separation with acetic acid acetonitril gradient on reversed phase C18 silica and MS/MS using penta-deuterated belinostat as the internal standard. […] For all analytes the AUC was estimated from the start of infusion by the logarithmic-linear trapezoidal rule and extrapolated to infinity using the estimated value of the slope of the terminal logarithmic-linear disposition phase.

[2] = test system: patients with advanced solid malignancy; conditions: in vivo
Procedure: Belinostat was administered in escalating doses of 600, 800 and 1000 mg m^−2 per day as a 30-min i.v. infusion on days 1–5 q21. Carboplatin was administered as a 30-min i.v. infusion at area under the curve (AUC) 5 on day 3 q21 days, whereas paclitaxel was administered at 175 mg m^−2 i.v. over 3 h. Cytotoxics were given 2–3 h after the administration of belinostat–paclitaxel followed by carboplatin. […] Carboplatin was dosed in accordance with the Calvert formula using ethylenediaminetetraacetic acid clearance to estimate glomerular filtration rate (GFR) ([Calvert et al, 1989]) at the European Union sites and the Jelliffe formula at sites in the United States ([Jelliffe, 1973]). Prophylactic anti-emetic and hypersensivity prophylaxis for paclitaxel were administered as per local standards.
A DLT was defined as an absolute neutrophil count <0.5 × 10^9 l^−1 lasting for ⩾7 days, or absolute neutrophil count <0.5 × 10^9 l^−1 with sepsis; or platelet count <25 × 10^9 l^−1. In addition, any other drug-related non-haematological grade III or IV toxicity with the exceptions of alopecia, nausea and vomiting, diarrhoea, rash, arthralgias and myalgias was categorized as DLT.
Dose escalation was planned in a classical 3+3 design in up to five cohorts. In cohort 1A, belinostat was to be administered at 600 mg m^−2 together with carboplatin AUC 5; in cohort 1B, […] with paclitaxel 175 mg m^−2. In cohort 2, belinostat at 600 mg m^−2 was to be administered with both carboplatin AUC 5 and paclitaxel at 175 mg m^−2. In cohorts 3 and 4, belinostat was to be administered at 800 and 1000 mg m^−2, respectively, together with the same doses of BelCaP. Treatment cycles were to be repeated until disease progression, evidence of significant treatment-related toxicities, or withdrawal of consent. Up to two dose reductions were to be allowed of all three drugs.
Pre-treatment evaluation included history, physical examination, laboratory assessments, chest x-ray, electrocardiogram (ECG), urinalysis and tumour evaluation with computed tomography (CT) or magnetic resonance imaging (MRI). Laboratory assessments (complete blood count, clotting screen, urea, creatinine, electrolytes, liver function tests, uric acid, glucose and cholesterol) were performed pre-treatment and weekly thereafter as well as on day 4 of cycles 1 and 2 only. Electrocardiograms were performed before and within 1 h after treatment with belinostat in cycle 1 and on day 1 only of all subsequent cycles. Central ECG reading was carried out using a digital analysis method.
Toxicities were graded according to the National Cancer Institute Common Terminology Criteria for Adverse Events version 3.0. Efficacy was assessed by CT or MRI performed every two cycles using Response Evaluation Criteria in Solid Tumors (RECIST) ([Therasse et al, 2000]).

[3] = test system: advanced solid malignancy; assay: Anti-tumour activity by CT/MRI (RECIST) in phase I patients; format: in vivo, human; conditions: for duration of response: confirmed PR
[4] = test system: solid and haematological tumours; conditions: cited from earlier work; for dose-limiting toxicities: 2008
[5] = test system: class I and II recombinant HDAC isoforms; design: method as in Khan et al, 2008; conditions: ref Khan et al, 2008; cited from earlier work
[6] = design: method as in Qian et al, 2006; conditions: combined with paclitaxel, docetaxel and carboplatin, in vitro and in vivo; ref Qian et al, 2006; cited from earlier work
[7] = belinostat 600 mg m^−2 i.v., days 1 and 3, 12 patients
[8] = belinostat 800 mg m^−2 i.v., days 1 and 3, 4 patients
[9] = belinostat 1000 mg m^−2 i.v., day 1, 7 patients
[10] = belinostat 1000 mg m^−2 i.v., day 3, 7 patients
[11] = 600 mg, belinostat 600 mg m^−2 i.v., days 1 and 3, 12 patients
[12] = 800 mg, belinostat 800 mg m^−2 i.v., days 1 and 3, 4 patients
[13] = 1000 mg, belinostat 1000 mg m^−2 i.v., day 1, 7 patients
[14] = 1000 mg, belinostat 1000 mg m^−2 i.v., day 3, 7 patients
[15] = eight patients with best response s.d.

## O=C(/C=C/c1cccc(S(=O)(=O)Nc2ccccc2)c1)NO [belinostat]
[1]; 1000 mg m^−2 per day, day 3 pre-infusion
  accumulation with repeat dosing: no accumulation
[1]; [7]
  Cl: 69.7±15.2 l h^−1 m^−2
  Vss: 34.9±6.4 l m^−2
[1]; [8]
  Cl: 73.7±14.1 l h^−1 m^−2
  Vss: 38.1±9.7 l m^−2
[1]; [9]
  Cl: 41.1±22.2 l h^−1 m^−2
  Vss: 22.6±9.7 l m^−2
[1]; [10]
  Cl: 45.1±17.3 l h^−1 m^−2
  Vss: 35.8±17.3 l m^−2
[1]; belinostat 1000 mg m^−2 per day, limit of quantitation 5 ng ml^−1
  patients with pre-infusion plasma value on day 3 below the limit of quantitation: five of seven
[1]; belinostat with carboplatin and/or paclitaxel on day 3
  effect of concurrent administration on pharmacokinetics: unaltered
[1]; dose range 600–1000 mg m^−2
  dose proportionality of pharmacokinetics: dose proportional
[1]; [11]
  AUC: 28.4 ± 7.1 µM·h
  AUC(0-inf): 28.4 ± 7.1 µM·h
  Cmax: 58.5 ± 13.8 µM
  half-life: 1.7 ± 0.9 h
[1]; [12]
  AUC: 35.5 ± 8.7 µM·h
  AUC(0-inf): 35.6 ± 8.7 µM·h
  Cmax: 70.8 ± 18.9 µM
  half-life: 1.7 ± 0.2 h
[1]; [13]
  AUC: 102 ± 58.2 µM·h
  AUC(0-inf): 102 ± 58.3 µM·h
  Cmax: 128 ± 43.5 µM
  half-life: 1 ± 0.1 h
[1]; [14]
  AUC: 88.8 ± 63.9 µM·h
  AUC(0-inf): 88.8 ± 63.9 µM·h
  Cmax: 135 ± 54.9 µM
  half-life: 2.7 ± 0.4 h
[2]; human
  Alopecia grade 3, treatment related AE: 0
  Arthralgia grade 3, treatment related AE: 0
  Flushing grade 3, treatment related AE: 0
  Nausea grade 3, treatment related AE: 0
  Neutropenia grade 4, treatment related AE: 13%
  maximal administered dose of belinostat: 1000 mg m^−2 per day
[2]; human, iv
  recommended dose of belinostat: 1000 mg m^−2 per day
[2]
  cardiac toxicity: no cardiac toxicity
  grade IV non-haematological adverse events: no grade IV non-haematological adverse events
[3]; 14 patients evaluable
  patients with best response of s.d.: eight
[3]; belinostat with carboplatin and/or paclitaxel
  patients with stable disease lasting ⩾6 months: six and seven
[3]; belinostat with carboplatin and/or paclitaxel, 14 patients evaluable, RECIST
  partial responses (number of patients): two
[3]; patient with metastatic pancreatic cancer treated with belinostat and carboplatin
  duration of response: 7 months
[3]; patient with metastatic rectal cancer treated with belinostat, carboplatin and paclitaxel
  duration of response: 9 months
[3]; [15]
  duration of s.d., median: 6.6 months
  duration of s.d., range: 1–29 months
[3]; one patient, mixed mullerian tumour of ovarian origin, radiologically s.d. by RECIST
  CA-125 response: complete CA-125 response
[3]; seven patients with s.d. lasting ⩾6 months
  duration of s.d., range: 6–29 months
[3]; treated with belinostat and paclitaxel, otherwise rated s.d.
  response in patient with metastatic transitional cell cancer of the bladder: resolution of a bony metastatic deposit
[4]; single agent phase I studies, ref Steele et al, 2008, Gimsing et al
  myelosuppression: no significant myelosuppression
[4]; single agent, i.v., q21 days, ref Steele et al, 2008, Gimsing et al
  maximum tolerated dose (MTD): 1000 mg m^−2 per day
[4]; single agent, solid tumour study, ref Steele et al
  dose-limiting toxicities: fatigue, diarrhoea and atrial fibrillation
[4]; single agent, study of haematological tumours, ref Gimsing et al
  dose-limiting toxicities: none were seen
[5]
  activity against HDAC isoforms: nanomolar activity
[6]
  combination effect: additive to synergistic

From PMC2905291, “A phase I study of the safety and pharmacokinetics of the histone deacetylase inhibitor belinostat administered in combination with carboplatin and/or paclitaxel in patients with solid tumours” (British Journal of Cancer, 2010)
